Reference: patent US8017612B2, “Piperazine compound and use thereof as a HCV polymerase inhibitor” (priority 2006, dated 2011)

What was measured:
[1] = target: T1, HCV polymerase (NS5B) type 1b (Hepatitis C virus genotype 1b, UniProt P26663); assay: Assay of enzyme (HCV polymerase) inhibitory activity, type 1b enzyme; type: biochemical, HCV BK strain (type 1b); conditions: HCV polymerase inhibitory activity IC50, 1b, type 1b enzyme
T1 construct: a region encoding NS5B (J Virol 1991 March, 65(3), 1105-13, 544 amino acids after deletion of 47 amino acids on the C-terminal); 6xHis (C); made in house; host or cells: Escherichia coli
Outline: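 NS5B from HCV BK strain (type 1b), C-terminal 47 aa deleted, C-terminal His6-tagged, E. coli-expressed, 0.5 μg/ml, with ~450 nt substrate RNA carrying the 3′ UTR (polyU, 3′X) at 5 μg/ml. Incubation 60 min at 25 °C with 50 μM ATP/GTP/CTP, 2 μM UTP plus [3H]UTP, pH 7.5 Tris.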

[2] = target: T2, HCV polymerase (NS5B) type 1a (Hepatitis C virus genotype 1a, UniProt P26664); assay: Assay of enzyme (HCV polymerase) inhibitory activity, type 1a enzyme; type: biochemical, HCV type 1a (cloned from the blood of patients); conditions: HCV polymerase inhibitory activity IC50, 1a, type 1a enzyme
T2 construct: made in house; host or cells: Escherichia coli (by the 'similar method' of the 1b enzyme)
Outline: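 Patient-derived type 1a NS5B (C-terminal 47-aa deletion, His-tagged, E. coli-expressed) at 1.5 μg/ml was reacted with 5 μg/ml 3′UTR-containing substrate RNA, 50 μM ATP/GTP/CTP, 2 μM UTP plus [3H]UTP, pH 7.5, 25° C for 60 min. TCA-precipitated RNA radioactivity was counted; IC50 from ± compound.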

O=C(NCc1ccc(OC(F)F)cc1F)[C@H]1CN(c2nc3ncncc3s2)CCN1S(=O)(=O)c1ccc(OC(F)(F)F)cc1 [Example 998, (R)-4-thiazolo[4,5-d]pyrimidin-2-yl-1-(4-trifluoromethoxy-benzenesulfonyl)-piperazine-2-carboxylic acid 4-difluoromethoxy-2-fluoro-benzylamide]
IC50 [1]: < 100 nM | IC50 [2]: < 100 nM

O=C(NCc1ccc(OC(F)(F)F)cc1)[C@H]1CN(c2nc3nc(C(F)(F)F)ncc3s2)CCN1S(=O)(=O)c1ccc(OC(F)F)cc1 [Example 999, (R)-1-(4-difluoromethoxy-benzenesulfonyl)-4-(5-trifluoromethyl-thiazolo[4,5-d]pyrimidin-2-yl)-piperazine-2-carboxylic acid 4-trifluoromethoxy-benzylamide]
IC50 [1]: < 100 nM | IC50 [2]: < 100 nM

O=C(NCc1ccc(OC(F)F)cc1)[C@H]1CN(c2nc3nc(C(F)(F)F)ncc3s2)CCN1S(=O)(=O)c1ccc(OC(F)(F)F)cc1 [Example 1000, (R)-1-(4-trifluoromethoxy-benzenesulfonyl)-4-(5-trifluoromethyl-thiazolo[4,5-d]pyrimidin-2-yl)-piperazine-2-carboxylic acid 4-difluoromethoxy-benzylamide]
IC50 [1]: < 100 nM | IC50 [2]: < 100 nM

O=C(NCc1ccc(OC(F)F)cc1)[C@H]1CN(c2nc3nc(C(F)(F)F)ncc3s2)CCN1S(=O)(=O)c1ccc(C(F)(F)F)cc1 [Example 1001, (R)-1-(4-trifluoromethyl-benzenesulfonyl)-4-(5-trifluoromethyl-thiazolo[4,5-d]pyrimidin-2-yl)-piperazine-2-carboxylic acid 4-difluoromethoxy-benzylamide]
IC50 [1]: < 100 nM | IC50 [2]: < 100 nM

O=C(NCc1ccc(OC(F)(F)F)cc1)[C@H]1CN(c2nc3nnnc(NCCO)c3s2)CCN1S(=O)(=O)c1ccc(OC(F)(F)F)cc1 [Example 1002, (R)-4-[4-(2-hydroxy-ethylamino)-thiazolo[4,5-d][1,2,3]triazin-6-yl]-1-(4-trifluoromethoxy-benzenesulfonyl)-piperazine-2-carboxylic acid 4-trifluoromethoxy-benzylamide]
IC50 [1]: < 100 nM | IC50 [2]: < 100 nM

O=C(NCc1ccc(OC(F)(F)F)cc1)[C@H]1CN(c2nc3nc(C(F)(F)F)[nH]c(=O)c3s2)CCN1S(=O)(=O)c1ccc(OC(F)(F)F)cc1 [Example 1003, (R)-4-(7-oxo-5-trifluoromethyl-6,7-dihydro-thiazolo[4,5-d]pyrimidin-2-yl)-1-(4-trifluoromethoxy-benzenesulfonyl)-piperazine-2-carboxylic acid 4-trifluoromethoxy-benzylamide]
IC50 [1]: < 100 nM | IC50 [2]: < 100 nM

O=C(NCc1ccc(OC(F)(F)F)cc1)[C@H]1CN(c2nc3nc(C(F)(F)F)ncc3s2)CCN1S(=O)(=O)c1ccc(OC(F)(F)C(F)F)cc1 [Example 1004, (R)-1-[4-(1,1,2,2-tetrafluoro-ethoxy)-benzenesulfonyl]-4-(5-trifluoromethyl-thiazolo[4,5-d]pyrimidin-2-yl)-piperazine-2-carboxylic acid 4-trifluoromethoxy-benzylamide]
IC50 [1]: < 100 nM | IC50 [2]: < 100 nM

O=C(NCc1ccc(OC(F)F)cc1)[C@H]1CN(c2nc3nc(C(F)(F)F)ncc3s2)CCN1S(=O)(=O)c1ccc(OC(F)F)cc1 [Example 1005, (R)-1-(4-difluoromethoxy-benzenesulfonyl)-4-(5-trifluoromethyl-thiazolo[4,5-d]pyrimidin-2-yl)-piperazine-2-carboxylic acid 4-difluoromethoxy-benzylamide]
IC50 [1]: < 100 nM | IC50 [2]: < 100 nM

O=C(NCc1ccc(OC(F)(F)F)cc1)[C@H]1CN(c2nc3nnncc3s2)CCN1S(=O)(=O)c1ccc(C(F)(F)F)cc1 [Example 1006, (R)-4-thiazolo[4,5-d][1,2,3]triazin-6-yl-1-(4-trifluoromethyl-benzenesulfonyl)-piperazine-2-carboxylic acid 4-trifluoromethoxy-benzylamide]
IC50 [1]: < 100 nM | IC50 [2]: < 100 nM

CCOC(=O)c1ncc2sc(N3CCN(S(=O)(=O)c4ccc(OC(F)(F)F)cc4)[C@@H](C(=O)NCc4ccc(OC(F)(F)F)cc4)C3)nc2n1 [Example 1007, 2-[(R)-4-(4-trifluoromethoxy-benzenesulfonyl)-3-(4-trifluoromethoxy-benzylcarbamoyl)-piperazin-1-yl]-thiazolo[4,5-d]pyrimidine-5-carboxylic acid ethyl ester]
IC50 [1]: < 100 nM | IC50 [2]: < 100 nM

O=C(NCc1ccc(OC(F)(F)F)cc1)[C@H]1CN(c2nc3nc(CO)ncc3s2)CCN1S(=O)(=O)c1ccc(OC(F)(F)F)cc1 [Example 1008, (R)-4-(5-hydroxymethyl-thiazolo[4,5-d]pyrimidin-2-yl)-1-(4-trifluoromethoxy-benzenesulfonyl)-piperazine-2-carboxylic acid 4-trifluoromethoxy-benzylamide]
IC50 [1]: < 100 nM | IC50 [2]: < 100 nM

COc1nncc2sc(N3CCN(S(=O)(=O)c4ccc(OC(F)(F)F)cc4)[C@@H](C(=O)NCc4ccc(OC(F)(F)F)cc4)C3)nc12 [Example 1009, (R)-4-(4-methoxy-thiazolo[4,5-d]pyridazin-2-yl)-1-(4-trifluoromethoxy-benzenesulfonyl)-piperazine-2-carboxylic acid 4-trifluoromethoxy-benzylamide]
IC50 [1]: < 100 nM | IC50 [2]: < 100 nM

N#Cc1ncc2sc(N3CCN(S(=O)(=O)c4ccc(C(F)(F)F)cc4)[C@@H](C(=O)NCc4ccc(OC(F)(F)F)cc4)C3)nc2n1 [Example 1010, (R)-4-(5-cyano-thiazolo[4,5-d]pyrimidin-2-yl)-1-(4-trifluoromethyl-benzenesulfonyl)-piperazine-2-carboxylic acid 4-trifluoromethoxy-benzylamide]
IC50 [1]: < 100 nM | IC50 [2]: < 100 nM

N#Cc1ncc2sc(N3CCN(S(=O)(=O)c4ccc(C(F)(F)F)cc4)[C@@H](C(=O)NCc4ccc(OC(F)F)cc4)C3)nc2n1 [Example 1011, (R)-4-(5-cyano-thiazolo[4,5-d]pyrimidin-2-yl)-1-(4-trifluoromethyl-benzenesulfonyl)-piperazine-2-carboxylic acid 4-difluoromethoxy-benzylamide]
IC50 [1]: < 100 nM | IC50 [2]: < 100 nM

O=C(NCc1ccc(OC(F)(F)F)cc1)[C@H]1CN(c2nc3nc(CC4CC4)ncc3s2)CCN1S(=O)(=O)c1ccc(C(F)(F)F)cc1 [Example 1012, (R)-4-(5-cyclopropylmethyl-thiazolo[4,5-d]pyrimidin-2-yl)-1-(4-trifluoromethyl-benzenesulfonyl)-piperazine-2-carboxylic acid 4-trifluoromethoxy-benzylamide]
IC50 [1]: < 100 nM | IC50 [2]: < 100 nM

NC(=O)c1ncc2sc(N3CCN(S(=O)(=O)c4ccc(C(F)(F)F)cc4)[C@@H](C(=O)NCc4ccc(OC(F)(F)F)cc4)C3)nc2n1 [Example 1013, 2-[(R)-3-(4-trifluoromethoxy-benzylcarbamoyl)-4-(4-trifluoromethyl-benzenesulfonyl)-piperazin-1-yl]-thiazolo[4,5-d]pyrimidine-5-carboxylic acid amide]
IC50 [1]: < 100 nM | IC50 [2]: < 100 nM

O=C(NCc1ccc(OC(F)F)cc1)[C@H]1CN(c2nc3nc(C4CC4)ncc3s2)CCN1S(=O)(=O)c1ccc(OC(F)F)cc1 [Example 1014, (R)-4-(5-cyclopropyl-thiazolo[4,5-d]pyrimidin-2-yl)-1-(4-difluoromethoxy-benzenesulfonyl)-piperazine-2-carboxylic acid 4-difluoromethoxy-benzylamide]
IC50 [1]: < 100 nM | IC50 [2]: < 100 nM

O=C(NCc1ccc(OC(F)F)cc1)[C@H]1CN(c2nc3nc(C(F)(F)F)ncc3s2)CCN1S(=O)(=O)c1ccc(OC(F)(F)C(F)F)cc1 [Example 1015, (R)-1-[4-(1,1,2,2-tetrafluoro-ethoxy)-benzenesulfonyl]-4-(5-trifluoromethyl-thiazolo[4,5-d]pyrimidin-2-yl)-piperazine-2-carboxylic acid 4-difluoromethoxy-benzylamide]
IC50 [1]: < 100 nM | IC50 [2]: < 100 nM

O=C(NCc1ccc(OC(F)(F)F)cc1)[C@H]1CN(c2nc3nc(C4CC4)ncc3s2)CCN1S(=O)(=O)c1ccc(OC(F)F)cc1 [Example 1016, (R)-4-(5-cyclopropyl-thiazolo[4,5-d]pyrimidin-2-yl)-1-(4-difluoromethoxy-benzenesulfonyl)-piperazine-2-carboxylic acid 4-trifluoromethoxy-benzylamide]
IC50 [1]: < 100 nM | IC50 [2]: < 100 nM

O=C(NCc1ccc(OC(F)F)cc1)[C@H]1CN(c2nc3nc(C4CC4)ncc3s2)CCN1S(=O)(=O)c1ccc(OC(F)(F)F)cc1 [Example 1017, (R)-4-(5-cyclopropyl-thiazolo[4,5-d]pyrimidin-2-yl)-1-(4-trifluoromethoxy-benzenesulfonyl)-piperazine-2-carboxylic acid 4-difluoromethoxy-benzylamide]
IC50 [1]: < 100 nM | IC50 [2]: < 100 nM

O=C(NCc1ccc(OC(F)F)cc1)[C@H]1CN(c2nc3nc(C4CC4)ncc3s2)CCN1S(=O)(=O)c1ccc(OC(F)(F)C(F)F)cc1 [Example 1018, (R)-4-(5-cyclopropyl-thiazolo[4,5-d]pyrimidin-2-yl)-1-[4-(1,1,2,2-tetrafluoro-ethoxy)-benzenesulfonyl]-piperazine-2-carboxylic acid 4-difluoromethoxy-benzylamide]
IC50 [1]: < 100 nM | IC50 [2]: < 100 nM
